≈ marks a conversion by molar mass, not a printed value. Like-named read-outs stand apart in the source and are kept apart here. Starred links: 1 amine or outer side, 2 acyl side, 3 side chain; linkers in the order of their positions; H or OH if unused. Positions of bridges follow the written chain, without caps; N, C: chain ends. Non-standard residues stand in square brackets, D forms with d. Residues, ends and D or L forms follow the SMILES beside them. X1 = CC(C)CCCCCCCCC[C@H](CC(=O)[*:1])O[*:2]
Columns and labels:
Escherichia coli DH5α = test: in vitro susceptibility test (MIC); type: cell-based; settings: E. coli, 37° C.
Description: (§1) To examine whether surfactin has antimicrobial activity, in vitro susceptibility test was conducted.
(§2) Preparation of bacterial culture of Escherichia coli DH5α, Vibrio harveyi, Vibrio alginolyticus, Vibrio anguillarum, Vibrio salmonicida, Aeromonas hydrophila and Staphylococcus epidermidis by inoculation of these bacteria onto LBA (E. coli·DH5α) or TSA (+1.5% NaCl) and incubation at 37° C. for 16 hours. Later, the colonies were scraped off and dissolved in specific medium; the concentration was adjusted to OD540 of 1 (1×10^9 colonies/c.c. culture medium), 100 μl of bacterial culture were add to 900 μl of LB or TSB (+1.5% NaCl) to give a concentration of […].
(§3) An aliquot of 130 μl of the bacterial culture was added to each well of a 96-well plate, the concentration of bacterial culture was 5×10^5 CFU/ml, 20 μl of surfactin at different concentrations prepared by titration were added and incubated at 37° C. for 16 hours. A spectrophotometer was used to calculate the concentration of bacterial growth and the obtained data was compared with the original value (OD540=1), the concentration of the experimental group that equals to the original value is used as the minimum inhibiting concentration (MIC). Each group was prepared in triplicate and a control group was included.

[1] = tested on: Staphylococcus epidermidis; test: in vitro susceptibility test (MIC); type: cell-based; settings: 37° C., OD540, read-out: minimum inhibiting concentration (MIC)
Description: as §1, §2, §3

Vibrio alginolyticus = test: in vitro susceptibility test (MIC); type: cell-based; settings: 37° C., OD540, read-out: minimum inhibiting concentration (MIC)
Description: as §1, §2, §3

Vibrio anguillarum = test: in vitro susceptibility test (MIC); type: cell-based; settings: 37° C., OD540, read-out: minimum inhibiting concentration (MIC)
Description: as §1, §2, §3

Vibrio harveyi = test: in vitro susceptibility test (MIC); type: cell-based; settings: 37° C., OD540, read-out: minimum inhibiting concentration (MIC)
Description: as §1, §2, §3

Vibrio salmonicida = test: in vitro susceptibility test (MIC); type: cell-based; settings: 37° C., OD540, read-out: minimum inhibiting concentration (MIC)
Description: as §1, §2, §3

Aspergillus niger = test: in vitro susceptibility test (MIC), fungal culture; type: cell-based; settings: read-out: minimum inhibiting concentration (MIC)
Description: as §1
Aspergillus niger was inoculated onto the MEAIII plate and incubated at 25° C. for 48 hours, the colonies were scraped off into specific culture medium. Bacterial culture was spread onto the MEAIII plate after serial dilution and the number of colonies was calculated, the original concentration was determined to be 1×10^6 CFU/ml. An aliquot of 500 μl of the bacterial culture was add to 500 μl of MEB before diluting the concentration of bacterial culture to 5×10^5 CFU/ml.
as §3

Aeromonas hydrophila = test: in vitro susceptibility test (MIC); type: cell-based; settings: 16 h, 37° C., OD540, read-out: minimum inhibiting concentration (MIC)
Description: as §1, §2, §3

bacterial culture = test: in vitro susceptibility test (MIC), summary statement of the text; type: cell-based
Description: as §1, §2, §3

nervous necrosis virus = test: effect of surfactin on morphology of virus particles (transmission electron microscope)
Description: Surfactin was dissolved in sterilized water and the solution was filtered with a 0.2 μm filter membrane, followed by dilution of dissolved surfactin in 1% FBS-L15 to give diluted surfactin solution at the concentrations of 40 μg/ml and […]. The surfactin treatment group: surfactin and virus in the volume ratio of 1:1 were mixed. Control group: 1% FBS-L15 culture medium with NNV culture were mixed and incubated at 28° C. for 1 day before examination under a transmission electron microscope (Hitachi H-600). An aliquot of 6 μl of the surfactin treatment group was dropped onto a copper mesh to allow precipitation of the virus for about 10 minutes before been stained in 1% phosphotungstic acid (PTA, Sigma) at pH 7.4. After staining, excess mixture was removed with filter paper and incubated at room temperature for 30 minutes. The sample was examined after the copper mesh was air-dried. The voltage used for transmission electron microscope was 75 KV and the exposure time of the film was 4 seconds. The removed negative film was placed on the rack and soaked in the developer D19 for 4 minutes to develop the image. After completion of development, the film was soaked in 0.33% glacial acetic acid to stop the reaction followed by 10 minutes in fixative. Finally, excess chemicals were removed by placing the film under running water for 60 minutes before drying.

Iridovirus = test: as above
[2] = surfactin 20 μM; reduced from 72 mN/m; cited from earlier work

Row | Structure (SMILES) | MIC (Escherichia coli DH5α; 16 hours, OD540, read-out: minimum inhibiting concentration (MIC)) | MIC ([1]; 16 hours) | MIC (Vibrio alginolyticus; 16 hours) | MIC (Vibrio anguillarum; 16 hours) | MIC (Vibrio harveyi; 16 hours) | MIC (Vibrio salmonicida; 16 hours) | MIC (Aspergillus niger) | MIC (Aeromonas hydrophila) | MIC (Escherichia coli DH5α; Escherichia coli, 16 h, OD540, read-out: minimum inhibiting concentration (MIC)) | MIC ([1]; 16 h) | MIC (Vibrio alginolyticus; 16 h) | MIC (Vibrio anguillarum; 16 h) | MIC (Vibrio harveyi; 16 h) | MIC (Vibrio salmonicida; Aliivibrio salmonicida, 16 h) | MIC (bacterial culture) | morphology of nervous necrosis virus particles (nervous necrosis virus; 40 μg/ml surfactin + nervous necrosis virus, FIG. 2A (D)) | morphology of nervous necrosis virus particles (nervous necrosis virus; 100 μg/ml surfactin + nervous necrosis virus, FIG. 2A (E)) | morphology of Iridovirus particles (Iridovirus; 10 μg/ml surfactin + Iridovirus, FIG. 2B (B)) | morphology of Iridovirus particles (Iridovirus; 40 μg/ml surfactin + Iridovirus, FIG. 2B (C)) | surface tension of water [2]
1 | CC(C)CCCCCCCCC[C@@H]1CC(=O)N[C@@H](CCC(=O)O)C(=O)N[C@@H](CC(C)C)C(=O)N[C@H](CC(C)C)C(=O)N[C@@H](C(C)C)C(=O)N[C@@H](CC(=O)O)C(=O)N[C@H](CC(C)C)C(=O)N[C@@H](CC(C)C)C(=O)O1 [surfactin produced by the high-yield mutant strain of Bacill] (EL[dL]VD[dL]L; linker N-C via X1) | 96.5 µM (≈ 100 µg/mL) | 96.5 µM (≈ 100 µg/mL) | 96.5 µM (≈ 100 µg/mL) | 96.5 µM (≈ 100 µg/mL) | 96.5 µM (≈ 100 µg/mL) | 96.5 µM (≈ 100 µg/mL) | 128.7 µM (≈ 133 µg/mL) |  |  |  |  |  |  |  |  |  |  |  |  | 
2 | CC(C)CCCCCCCCC[C@@H]1CC(=O)N[C@@H](CCC(=O)O)C(=O)N[C@@H](CC(C)C)C(=O)N[C@H](CC(C)C)C(=O)N[C@@H](C(C)C)C(=O)N[C@@H](CC(=O)O)C(=O)N[C@H](CC(C)C)C(=O)N[C@@H](CC(C)C)C(=O)O1 [surfactin] (EL[dL]VD[dL]L; linker N-C via X1) |  |  |  |  |  |  | 193 µM (≈ 200 µg/mL) | 129 µM (≈ 133 µg/mL) | 193 µM (≈ 200 µg/mL) | 129 µM (≈ 133 µg/mL) | 129 µM (≈ 133 µg/mL) | 129 µM (≈ 133 µg/mL) | 129 µM (≈ 133 µg/mL) | 129 µM (≈ 133 µg/mL) | 96.5 µM (≈ 100 µg/mL) | normal viral particles | abnormal viral particles | the appearance of said virus has changed | adhesion between surfactin and viruses is observed | 27 mN/m
